{"source": "patent US11793841B2", "about": "“Microbial compositions and methods for treating type 2 diabetes, obesity, and metabolic syndrome” (Solarea Bio, Inc., priority 2017, dated 2023)", "test_system": "diet induced obese (DIO) C57BL/6J mice", "assay": "Oral glucose tolerance test (OGTT) in diet induced obese mice", "type": "in vivo", "conditions": "monotherapy; by 60 minutes", "description": "After 4 weeks of dosing mice with test article, an OGTT was performed. Here, mice were fasted for 6 hours after which fasting blood glucose levels were measured via tail vein blood using a glucometer (One-Touch Ultra II). Mice were then dosed with an oral glucose bolus (2 g/kg) via oral gavage, and blood glucose was measured at 20, 40, 60, and 120 minutes post gavage.", "data": [{"smiles": "CN(C)C(=N)N=C(N)N", "note": "[metformin]", "values": [{"measurement": "blood glucose after glucose challenge", "value": "remained elevated"}]}]}
